Results taken from US20050113371A1, “Antifungal agent for topical use” (priority 2002, published 2005).
Counter-ions that a name gives are not always drawn. Like-named read-outs stand apart in the source and are kept apart here.

Key:
[1] = test system: Trichophyton mentagrophytes; test: Antifungal activity on Sabouraud agar medium, MIC and FIC index (Test Examples 1 and 2); assay type: cell-based; settings: cultured 7 days
Method: (§1) Amorolfine hydrochloride and each specimen (hereinafter referred to as “medicine”) at a mass ratio of 1:1 were dissolved in dimethyl sulfoxide (DMSO). Two-fold dilution series were prepared with DMSO. In the determination of the antifungal activity, the medicine and the medium were mixed together at a ratio of 1:99.
(§2) Sabouraud agar medium (Eiken) was used as a susceptibility determination medium. A microbe suspension containing 10^6 spores/mL of Candida albicans or about 10^6 conidia/mL of ringworm fungus was prepared. 5 μl of the suspension was inoculated on the Sabouraud agar medium containing the medicine with a micro-planter (a product of Sakuma Seisakusho). Candida albicans was cultured for 2 days and the tinea was cultured for 7 days. […]

Trichophyton rubrum = test: as above; assay type: cell-based; settings: cultured 7 days
Method: as §1, §2

[2] = rats, cited from earlier work
[3] = in vivo; cited from earlier work
[4] = male and female rabbits, percutaneous; cited from earlier work
[5] = test system: Trichophyton mentagrophytes; settings: at a low concentration; cited from earlier work
[6] = test system: Trichophyton mentagrophytes TIMM 1189; test: Tinea infection model of guinea pigs, culture test (Test Example 3); assay type: in vivo; settings: 0.75 mass % in polyethylene glycol 400 (combination 1:2), 0.1 mL once a day for 5 days from 3 days after inoculation; culture on 5th day after last application; 10 loci
Method: Amorolfine hydrochloride and each specimen (hereinafter referred to as “medicine”) at a mass ratio of 1:2 were dissolved in polyethylene glycol 400 to obtain a final concentration of 0.75% mass ratio. Each of amorolfine hydrochloride and the medicines was separately dissolved in polyethylene glycol 400 to obtain solutions having the final concentration of 0.75 mass %.
Male Hartley guinea pigs (Japan SLC Co., Ltd.; 6 weeks) were used. In the course of the test, they were kept separately from one another in an isolator (Negative rack, CLEA JAPAN, Inc.). They could freely have a solid food (G standard, Nihon Nosan Kogyo KK) and water.
Trichophyton mentagrophytes TIMM 1189 was cultured on slant Sabouraud glucose agar medium at 27° C. for 14 days. Then, sterilized saline containing 0.05% of Tween 80 was added thereto to obtain conidia. The resultant suspension was filtered through a cell strainer (FALCON Co., Ltd.) to remove large mycelian masses. The number of conidia was counted with hemocytometer. The conidia were diluted to 4×10^7/mL with sterilized saline containing 0.05% of Tween 80 to obtain the conidial suspension for inoculation.
The back of each guinea pig was shaved. Then, a circular inoculation part having a diameter of 2 cm was positioned on both sides of the spinal column. A gummed tape was applied thereto and then peeled. These steps was repeated three times, whereby the hair was pulled out of the skin in both parts and, at the same time, the top of the corneous layer of the skin was peeled off. The remaining hair was completely removed with tweezers. […]
When at least one of the 10 small pieces taken from one inoculated locus of the skin was the positive after the culture, the inoculated locus was judged to be positive. The ratio of positive loci after culture was calculated from the number of the cultured positive pieces in the total 10 inoculated loci in each experiment group.
The number of the cultured positive small pieces in the inoculated portion was scored as will be described below to determine the infection. […]

Candida albicans [7] = settings: cited from earlier work
[8] = rabbit, in vivo; cited from earlier work
Candida albicans [9] = test: Antifungal activity on Sabouraud agar medium, MIC and FIC index (Test Examples 1 and 2); assay type: cell-based; settings: cultured 2 days
Method: as §1
Sabouraud agar medium (Eiken) was used as a susceptibility determination medium. A microbe suspension containing 10^6 spores/mL of Candida albicans or about 10^6 conidia/mL of ringworm fungus was prepared. 5 μl of the suspension was inoculated on the Sabouraud agar medium containing the medicine with a micro-planter (a product of Sakuma Seisakusho). Candida albicans was cultured for 2 days and the tinea was cultured for 7 days.
The effect obtained by the combination was judged on the basis of the following standards (FIC index): • >2: antagonism • 2>and 1<: additive action • 1>: potentiation
(1) Amorolfine hydrochloride and each specimen (hereinafter referred to as “medicine”) at a mass ratio of 100:1 to 1:100 were dissolved in dimethyl sulfoxide (DMSO). Two-fold dilution series were prepared with DMSO. In the determination of the antifungal activity, the medicine and the medium were mixed together at a ratio of 1:99.
(2) Amorolfine hydrochloride and each specimen (hereinafter referred to as “medicine”) at a mass ratio of 1:3 to 3:1 were dissolved in dimethyl sulfoxide (DMSO). Two-fold dilution series were prepared with DMSO. In the determination of the antifungal activity, the medicine and the medium were mixed together at a ratio of 1:99.
Sabouraud agar medium (Eiken) was used as a susceptibility determination medium. A microbe suspension containing 10^6 spores/mL of Candida albicans or about 10^6 conidia/mL of each of two kinds of ringworm fungus was prepared. 5 μl of the suspension was inoculated on the Sabouraud agar medium with a micro-planter (a product of Sakuma Seisakusho). Candida albicans was cultured for 2 days and the Tinea fungus was cultured for 7 days.

[10] = mice, cited from earlier work
[11] = Test Example 1, amorolfine hydrochloride + medicine at mass ratio 1:1

CN(C/C=C/C#CC(C)(C)C)Cc1cccc2ccccc12 [terbinafine hydrochloride, (E)-N-(6,6-dimethyl-2-hepten-4-ynyl)-N-methyl-1-naphthalenemethylamine hydrochloride]
FIC index obtained by the combination of amorolfine hydrochloride with another medicine [1, 11]: 0.52 | MIC ([1]; Trichophyton mentagrophytes, 168 h, Test Example 2, geometric mean MIC of two strains, read-out: Minimum inhibitory concentration (MIC)): 0.011 µg/mL | FIC index obtained by the combination of amorolfine hydrochloride with another medicine (Trichophyton rubrum; [11]): 0.75 | MIC (Trichophyton rubrum; Trichophyton rubrum, 168 h, Test Example 2, geometric mean MIC of two strains, read-out: Minimum inhibitory concentration (MIC)): 0.004 µg/mL | LD50 ([2]; intravenous injection, female): 206 mg/kg | LD50 ([2]; intravenous injection, male): 220 mg/kg | LD50 ([2]; oral, male and female): > 4000 mg/kg | LD50 ([2]; percutaneous, male and female): > 2000 mg/kg | LD50 ([2]; subcutaneous, male and female): > 2000 mg/kg | increase in the body weight of dams [3]: suppression on the increase in the body weight of dams | influence on the reproduction and the growth of the embryos [3]: no influence was recognized | LD50 [4]: > 1500 mg/kg | effect on germinated conidium of Trichophyton mentagrophytes [5]: fungicidal effect | rate of positive loci after culture [6]: 100% | concentration that exhibits a fungistatic effect on the propagation of the yeast form (Candida albicans [7]): at least 1 μg/mL | concentration that inhibits the conversion from yeast form to mycelial form (Candida albicans [7]): at least 0.098 μg/mL | localized irritation [8]: a weak irritation or a light cumulative irritation | MIC (Candida albicans [9]; Candida albicans, 48 h, Test Example 2, geometric mean MIC of two strains, read-out: Minimum inhibitory concentration (MIC)): > 8 µg/mL | FIC index obtained by the combination of amorolfine hydrochloride with another medicine (Candida albicans [9]; [11]): 0.27 | Minimum inhibitory concentration (MIC) (Candida albicans [9]; Test Example 2, geometric mean MIC of two strains, listed as T, hydrochloride): >8.0 µg/mL | LD50 ([10]; intravenous injection, female): 377 mg/kg | LD50 ([10]; intravenous injection, male): 410 mg/kg | LD50 ([10]; oral, female): > 4000 mg/kg | LD50 ([10]; oral, male): 3570 mg/kg | LD50 ([10]; subcutaneous, male and female): > 2000 mg/kg
